Eleven molecules from US20080214807A1, “Substituted Spiro Compounds and their Use for Producing Drugs” (Gruenenthal GmbH, priority 2005, published 2008) can be followed below.

Structures are written as SMILES.

One assay concerns the target T1, VR1 (human) (Homo sapiens, UniProt Q8NER1).
T1 construct: expressed in transfected cells; host or cells: CHO K1 cells (ECACC)
Put plainly: Functional testing on vanilloid receptor VR1, FLIPR Ca2+ inflow assay (CHO K1 cells stably transfected with the VR1 gene). To be noted: test compound 10 μM; for inhibition at 10 µM / activation at 10 µM: CHO-K1; for inhibition at 10 µM / VR1 (human) (% inhibition compared to 10 μM CP): 5 min incubation, then 100 nM capsaicin, relative to maximum achievable inhibition with 10 μM capsaicin; for inhibition at 10 µM: read-out: VR1 (human) (% inhibition compared to 10 μM CP); for activation at 10 µM / VR1 (human) (% stimulation compared to 10 μM CP): Ca2+ inflow relative to signal of 10 μM capsaicin (CP); for activation at 10 µM: read-out: VR1 (human) (% stimulation compared to 10 μM CP). The class given is cell-based. An excerpt:
II. Functional Testing Carried out on the Vanilloid Receptor (VR1)
The agonistic or antagonistic effect of the substances to be tested can also be determined on the vanilloid receptor (VR1) using the following assay. According to this assay, the Ca^2+ inflow is quantified through the channel using a Ca^2+-sensitive dye (type Fluo-4, Molecular Probes Europe BV, Leiden, Netherlands) in a fluorescent imaging plate reader (FLIPR, Molecular Devices, Sunnyvale, USA).
Chinese hamster ovary cells (CHO K1 cells, European Collection of Cell Cultures (ECACC) United Kingdom) were stably transfected with the VR1 gene. For functional testing, these cells were plated out on poly-D-lysine-coated black 96 well plates having a clear base (BD Biosciences, Heidelberg, Germany) at a density of 25,000 cells/well. The cells were incubated overnight at 37° C. and 5% CO2 in a culture medium (Ham's F12 nutrient mixture, 10-% by volume of FCS (foetal calf serum), 18 μg/ml L-proline). The next day the cells were incubated with Fluo-4 (Fluo-4 2 μM, 0.01% by volume of Pluronic F127, Molecular Probes in HBSS (Hank's buffered saline solution), Gibco Invitrogen GmbH, Karlsruhe, Germany) for 30 minutes at 37° C. Subsequently, the plates were washed 3 times with HBSS buffer and after further incubation for 15 minutes at room temperature used for Ca^2+ measurement in a FLI PR assay. The Ca^2+-dependent fluorescence was measured before and after the addition of the substances to be tested (λex wavelength=488 nm, λem=540 nm). Quantification was carried out by measuring the highest fluorescence intensity (FC, Fluorescence Counts) over time.
The FLIPR protocol consists of 2 substance additions. First the compounds to be tested (10 μM) were pipetted onto the cells and the Ca^2+ inflow was compared with the control (capsaicin 10 μM) (% activation based on the Ca^2+ signal after the addition of 10 μM capsaicin). After 5 minutes' incubation, 100 nM of capsaicin were administered and the Ca^2+ inflow was also determined.
Desensitising agonists and antagonists led to suppression of the Ca^2+ inflow. The % inhibition was calculated compared to the maximum achievable inhibition with 10 μM of capsaicin.

Assay [1] has as its target T2, rat-species vanilloid receptor 1 (VR1/TRPV1) (Rattus norvegicus, UniProt O35433).
T2 construct: endogenous in cells; host or cells: primary cultured rat dorsal root ganglion cells
Put plainly: Functional testing on vanilloid receptor 1 (VR1/TRPV1), FLIPR Ca2+ inflow assay in rat dorsal root ganglia cells. The class given is cell-based. To be noted: test compound 10 μM; for inhibition at 10 µM / VR1 (rat) (% inhibition compared to 10 μM CP): 5 min incubation, then 100 nM capsaicin, relative to maximum achievable inhibition with 10 μM capsaicin; for inhibition at 10 µM: read-out: VR1 (rat) (% inhibition compared to 10 μM CP); for activation at 10 µM / VR1 (rat) (% stimulation compared to 10 μM CP): Ca2+ inflow relative to signal of 10 μM capsaicin (CP); for activation at 10 µM: read-out: VR1 (rat) (% stimulation compared to 10 μM CP). The text has this: I. Functional Testing Carried out on the Vanilloid Receptor 1 (VRI/TRPV1 Receptor)
The agonistic or antagonistic effect of the substances to be tested can be determined on the rat-species vanilloid receptor 1 (VR1/TRPV1) using the following assay. According to this assay, the Ca^2+ inflow is quantified through the receptor channel using a Ca^2+-sensitive dye (type Fluo-4, Molecular Probes Europe BV, Leiden, Netherlands) in a fluorescent imaging plate reader (FLIPR, Molecular Devices, Sunnyvale, USA).
Complete medium: 50 mL HAMS F12 nutrient mixture (Gibco Invitrogen GmbH, Karlsruhe, Germany) with
10% by volume of FCS (foetal calf serum, Gibco Invitrogen GmbH, Karlsruhe, Germany, […]);
2 mM L-glutamine (Sigma, Munich, Germany);
1% by weight of AA solution (antibiotic/antimyotic solution, PAA, Pasching, Austria) and 25 ng/ml NGF medium (2.5 S, Gibco Invitrogen GmbH, Karlsruhe, Germany)
Cell culture plate: Poly-D-lysine-coated, black 96 well plates having a clear base (96 well black/clear plate, BD Biosciences, Heidelberg, Germany) were additionally coated with laminin (Gibco Invitrogen GmbH, Karlsruhe, Germany), the laminin being diluted with PBS (Ca—Mg-free PBS, Gibco Invitrogen GmbH, Karlsruhe, Germany) to a concentration of 100 μg/mL. Aliquots having a laminin concentration of 100 μg/mL were removed and stored at −20° C. The aliquots were diluted with PBS in a ratio of 1:10 to 10 μg/mL laminin and in each case 50 μL of the solution were pipetted into a recess in the cell culture plate. The cell culture plates were incubated for at least two hours at 37° C., the excess solution was removed by suction-filtration and the recesses were each washed twice with PBS. The coated cell culture plates were stored with excess PBS which was not removed until just before the feeding of the cells.
Preparation of the Cells:
The vertebral column was removed from decapitated rats and placed immediately into cold HBSS buffer (Hank's buffered saline solution, Gibco Invitrogen GmbH, Karlsruhe, Germany), i.e. buffer located in an ice bath, mixed with 1% by volume (percent by volume) of an AA solution (antibiotic/antimyotic solution, PAA, Pasching, Austria). The vertebral column was cut longitudinally and removed together with fasciae from the vertebral canal. Subsequently, the dorsal root ganglia (DRG) were removed and again stored in cold HBSS buffer mixed with 1% by volume of an AA solution. The DRG, from which all blood remnants and spinal nerves had been removed, were transferred in each case to 500 μL of cold type 2 collagenase (PAA, Pasching, Austria) and incubated for 35 minutes at 37° C. After the addition of 2.5% by volume of trypsin (PAA, Pasching, Austria), incubation was continued for 10 minutes at 37° C. After complete incubation, the enzyme solution was carefully pipetted off and 500 μL of complete medium were added to each of the remaining DRG. The DRG were in each case suspended several times, drawn through cannulae No. 1, No. 12 and No. 16 using a syringe and transferred to a 50 mL Falcon tube which was filled up to 15 mL with complete medium. The contents of each Falcon tube was in each case filtered through a 70 μm Falcon filter element and centrifuged for 10 minutes at 1,200 rpm and room temperature. The resulting pellet was in each case taken up in 250 μL of complete medium and the number of cells determined.
The number of cells in the suspension was set to 3×10^5 per mL and 150 μL of this suspension were in each case introduced into a recess in the cell culture plates coated as described hereinbefore. In the incubator the plates were left for two to three days at 37° C., 5% by volume of CO2 and 95% relative humidity. […]

T1 sequence (Q8NER1 whole entry): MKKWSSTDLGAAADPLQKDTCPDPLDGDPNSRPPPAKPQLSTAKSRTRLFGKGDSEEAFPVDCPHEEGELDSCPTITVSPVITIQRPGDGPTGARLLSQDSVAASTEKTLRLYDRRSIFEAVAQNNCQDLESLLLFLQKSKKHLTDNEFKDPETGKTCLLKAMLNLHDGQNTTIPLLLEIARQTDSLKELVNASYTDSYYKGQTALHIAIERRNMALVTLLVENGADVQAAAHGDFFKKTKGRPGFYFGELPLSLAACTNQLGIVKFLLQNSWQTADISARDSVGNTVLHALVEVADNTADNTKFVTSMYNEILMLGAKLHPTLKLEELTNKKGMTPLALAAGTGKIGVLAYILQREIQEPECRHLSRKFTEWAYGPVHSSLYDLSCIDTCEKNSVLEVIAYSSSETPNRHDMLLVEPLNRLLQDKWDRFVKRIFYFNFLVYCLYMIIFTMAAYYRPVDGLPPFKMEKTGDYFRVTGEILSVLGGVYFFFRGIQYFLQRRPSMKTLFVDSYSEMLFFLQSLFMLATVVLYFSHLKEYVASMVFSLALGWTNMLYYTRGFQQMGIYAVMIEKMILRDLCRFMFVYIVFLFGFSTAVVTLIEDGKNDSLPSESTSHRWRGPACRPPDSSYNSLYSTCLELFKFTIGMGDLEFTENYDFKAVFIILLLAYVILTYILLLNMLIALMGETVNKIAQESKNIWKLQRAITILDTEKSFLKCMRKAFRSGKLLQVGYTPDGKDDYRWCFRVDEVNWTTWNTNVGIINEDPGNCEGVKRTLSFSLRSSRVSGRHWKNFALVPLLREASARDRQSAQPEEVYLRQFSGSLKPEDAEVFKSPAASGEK
T2 sequence (O35433 whole entry): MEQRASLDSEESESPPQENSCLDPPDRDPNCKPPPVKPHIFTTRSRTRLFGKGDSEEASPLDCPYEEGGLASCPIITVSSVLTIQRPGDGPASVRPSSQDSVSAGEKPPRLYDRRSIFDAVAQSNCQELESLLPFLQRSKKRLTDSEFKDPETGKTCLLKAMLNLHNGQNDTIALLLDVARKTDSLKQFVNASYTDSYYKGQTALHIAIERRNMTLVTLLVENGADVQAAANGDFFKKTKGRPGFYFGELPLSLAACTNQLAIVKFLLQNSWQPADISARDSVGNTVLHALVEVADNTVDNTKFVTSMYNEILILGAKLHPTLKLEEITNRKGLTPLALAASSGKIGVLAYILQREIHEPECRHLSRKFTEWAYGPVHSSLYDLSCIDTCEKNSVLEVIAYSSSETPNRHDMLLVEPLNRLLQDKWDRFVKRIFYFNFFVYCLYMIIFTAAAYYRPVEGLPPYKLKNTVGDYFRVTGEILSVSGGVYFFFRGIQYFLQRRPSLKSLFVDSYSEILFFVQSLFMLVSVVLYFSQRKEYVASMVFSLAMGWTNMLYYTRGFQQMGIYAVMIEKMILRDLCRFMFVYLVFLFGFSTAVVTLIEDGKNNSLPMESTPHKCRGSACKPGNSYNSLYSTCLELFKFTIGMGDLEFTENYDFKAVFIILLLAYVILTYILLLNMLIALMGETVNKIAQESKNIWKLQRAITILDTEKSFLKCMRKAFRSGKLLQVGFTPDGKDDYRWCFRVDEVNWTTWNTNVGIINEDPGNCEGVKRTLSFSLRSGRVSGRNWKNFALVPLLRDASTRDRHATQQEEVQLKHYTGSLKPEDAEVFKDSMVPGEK

A word on the inhibition: it is how much of the control response was suppressed. Consider `O=C(Nc1ccc(OC(F)(F)F)cc1)N1CCC2(CC1)CC(C(=O)N1CCN(c3ncccc3Cl)CC1)=NO2` [Example 34, 3-[4-(3-chloropyridin-2-yl)piperazine-1-carbonyl]-1-oxa-2,8-diazaspiro[4.5]dec-2-ene-8-carboxylic acid-(4-trifluoromethoxyphenyl)amide], for which, on VR1 (human), the inhibition at 10 µM amounted to 51.9% and the activation at 10 µM was -0.13%. In addition, in assay [1], the inhibition at 10 µM worked out at 86.2% and the activation at 10 µM worked out at 6.21%.
As to `COc1cccc(NC(=O)N2CCC3(CC2)CC(C(=O)NCc2ccc(OC)c(OC)c2)=NO3)c1` [Example 16, 1-oxa-2,8-diazaspiro[4.5]dec-2-ene-3,8-dicarboxylic acid-3-(3,4-dimethoxybenzylamide)-8-[(3-methoxyphenyl)amide]], on VR1 (human), the “VR1 (human) (% inhibition compared to 10 μM CP)” value was 0.77% and the “VR1 (human) (% stimulation compared to 10 μM CP)” value stood at 0.40%. In assay [1], the “VR1 (rat) (% inhibition compared to 10 μM CP)” value came to 8.65% and the “VR1 (rat) (% stimulation compared to 10 μM CP)” value is recorded as 0.00%.
Regarding `O=C(Nc1cccc(Br)c1)N1CCC2(CC1)CC(C(=O)N1CCN(c3ncccc3Cl)CC1)=NO2` [Example 11, 3-[4-(3-chloropyridin-2-yl)piperazine-1-carbonyl]-1-oxa-2,8-diazaspiro[4.5]dec-2-ene-8-carboxylic acid-(3-bromophenyl)amide], at VR1 (human), the inhibition at 10 µM is 37.3% and the activation at 10 µM is -0.15%. In assay [1], the inhibition at 10 µM amounted to 41.3% and the activation at 10 µM turned out to be 11.4%.
As to `O=C(Nc1ccc(Cl)cn1)C1=NOC2(CCN(C(=O)Nc3ccccc3Cl)CC2)C1` [Example 9, 1-oxa-2,8-diazaspiro[4.5]dec-2-ene-3,8-dicarboxylic acid-8-[(2-chlorophenyl)amide]-3-[(5-chloropyridin-2-yl)amide]], at VR1 (human), the “VR1 (human) (% inhibition compared to 10 μM CP)” value was 26.23% and the “VR1 (human) (% stimulation compared to 10 μM CP)” value is recorded as −0.48%. For the same molecule, in assay [1], the “VR1 (rat) (% inhibition compared to 10 μM CP)” value turned out to be 45.63% and the “VR1 (rat) (% stimulation compared to 10 μM CP)” value is 0.23%.
With `CSc1cccc(NC(=O)N2CCC3(CC2)CC(C(=O)N2CCN(c4ncccc4Cl)CC2)=NO3)c1` [Example 56, 3-[4-(3-chloropyridin-2-yl)piperazine-1-carbonyl]-1-oxa-2,8-diazaspiro[4.5]dec-2-ene-8-carboxylic acid-(3-methylsulphanylphenyl)amide], on VR1 (human), the inhibition at 10 µM was 41.9% and the activation at 10 µM is 5.26%. Further, in assay [1], the inhibition at 10 µM was 63.3% and the activation at 10 µM turned out to be 30.2%.
Take `CSc1ccc(NC(=O)N2CCC3(CC2)CC(C(=O)N2CCN(c4ncccc4Cl)CC2)=NO3)cc1` [Example 58, 3-[4-(3-chloropyridin-2-yl)piperazine-1-carbonyl]-1-oxa-2,8-diazaspiro[4.5]dec-2-ene-8-carboxylic acid-(4-methylsulphanylphenyl)amide]: on VR1 (human), the inhibition at 10 µM stood at 84.9% and the activation at 10 µM turned out to be 72.9%. Moreover, in assay [1], the inhibition at 10 µM stood at 72.5% and the activation at 10 µM was 19.5%.
For `COc1ccc(CNC(=O)C2=NOC3(CCN(C(=O)Nc4ccc(C(F)(F)F)cc4)CC3)C2)cc1OC` [Example 70, 1-oxa-2,8-diazaspiro[4.5]dec-2-ene-3,8-dicarboxylic acid-3-(3,4-dimethoxybenzylamide)-8-[(4-trifluoromethylphenyl)amide]], on VR1 (human), the “VR1 (human) (% inhibition compared to 10 μM CP)” value is recorded as −0.43% and the “VR1 (human) (% stimulation compared to 10 μM CP)” value is −0.18%. In addition, in assay [1], the “VR1 (rat) (% inhibition compared to 10 μM CP)” value came out at 67.41% and the “VR1 (rat) (% stimulation compared to 10 μM CP)” value was 0.35%.
Take `COc1ccc(NC(=O)N2CCC3(CC2)CC(C(=O)N2CCN(c4ncccc4Cl)CC2)=NO3)cc1` [Example 52, 3-[4-(3-chloropyridin-2-yl)piperazine-1-carbonyl]-1-oxa-2,8-diazaspiro[4.5]dec-2-ene-8-carboxylic acid-(4-methoxyphenyl)amide]: the figures for the inhibition at 10 µM (on VR1 (human); in assay [1]) were 45.1% and 55.8%, respectively. Moreover, the activation at 10 µM at VR1 (human) worked out at 47.5%; in assay [1], 38.5%.
For the molecule `O=C(Nc1ccc(Cl)c(C(F)(F)F)c1)N1CCC2(CC1)CC(C(=O)N1CCN(c3ncccc3Cl)CC1)=NO2` [Example 28, 3-[4-(3-chloropyridin-2-yl)piperazine-1-carbonyl]-1-oxa-2,8-diazaspiro[4.5]dec-2-ene-8-carboxylic acid-(4-chloro-3-trifluoromethylphenyl)amide], at VR1 (human), the inhibition at 10 µM came out at 27.6% and the activation at 10 µM was 0.08%. In assay [1], the inhibition at 10 µM amounted to 45.9% and the activation at 10 µM came to 0.63%.
With `CC(C)(C)c1ccc(NC(=O)N2CCC3(CC2)CC(C(=O)N2CCN(c4ncccc4Cl)CC2)=NO3)cc1` [Example 116, 3-[4-(3-chloropyridin-2-yl)piperazine-1-carbonyl]-1-oxa-2,8-diazaspiro[4.5]dec-2-ene-8-carboxylic acid-(4-tert-butylphenyl)amide], on VR1 (human), the inhibition at 10 µM worked out at 77% and the activation at 10 µM was found to be 42%. In assay [1], the inhibition at 10 µM was determined as 95% and the activation at 10 µM stood at 59%.
Consider `O=C(Nc1ccccc1F)N1CCC2(CC1)CC(C(=O)N1CCN(c3ncccc3Cl)CC1)=NO2` [Example 1, 3-[4-(3-chloropyridin-2-yl)piperazine-1-carbonyl]-1-oxa-2,8-diazaspiro[4.5]dec-2-ene-8-carboxylic acid-(2-fluorophenyl)amide], for which, on VR1 (human), the inhibition at 10 µM is 33.6% and the activation at 10 µM turned out to be 4.85%. For the same molecule, in assay [1], the inhibition at 10 µM is 34.2% and the activation at 10 µM amounted to 6.37%.
